{
  "source": "patent US20130004959A1",
  "about": "“SCREENING DEVICE CONTAINING NANOG PROMOTER, SOX2 PROMOTER, LIN 28 PROMOTER, OCT4 PROMOTER AND LUCIFERASE GENE AND SCREENING METHOD THEREOF” (NATIONAL CENTRAL UNIVERSITY, priority 2011, published 2013)",
  "system": "Nanog promoter, Sox2 promoter, Lin28 promoter, Oct4 promoter",
  "assay": "Luciferase assay in the screening device (cells stably carrying pStable promoter-Luc reporter plasmids)",
  "assay_type": "cell-based, mouse",
  "settings": "2 mM VPA, reacted with cells for 24 hours, \"24 hr cell\"; C2C12 / P19 stable clones",
  "method": "The screening is performed after the cells that express various promoters stably being prepared. […] The reporter plasmids whose backbone is constructed by the method mentioned above are transinfected individually into different dishes of host cells. After the reporter plasmids have been introduced into C2C12 or P19 cells, use G418 (Geneticin), a selective antibiotic for Neomycin resistance gene, to screen positive clones because pStable clones carry Neomycin resistance gene. After cell culture, transinfection, stable clone selection, and cells growing as colonies, stable clones in which various different promoters are expressed are obtained. In an embodiment of the present invention, pStable-Nanog-p-Luc plasmid, pStable-Sox2-p-Luc plasmid, pStable-Lin28-p-Luc plasmid and pStable-Oct4-p-Luc plasmid are introduced into both a C2C12 cell line and a P19 cell line. […] The C2C12 cell and P19 cell are cultured in an incubator under normal growth conditions (typically at 37° C., 5% CO2, and saturated humidity). Culture conditions of C2C12 cells and P19 cells are listed in the following list one: After the transfection processes, perform stable clone selection. The transfected cells are cultured in a culture medium containing 800 ug/ml G418. […] In an embodiment of the present invention, harvest cells after cells being reacted with 2 mM VPA for 24 hours and measure luminescence expression of cells. […]",
  "data": [
    {"smiles": "CCCC(CCC)C(=O)O", "note": "[VPA, valporic acid]", "values": [
      {"measurement": "level of Luciferase (luminescence expression)", "result": "higher level of Luciferase"}
    ]}
  ]
}
